Measured values reported in patent EP0799174B1, “BIOCIDAL ALCOHOLS, THEIR PRODUCTION AND THEIR USE” (SCHÜLKE & MAYR GMBH, priority 1994, dated 1996).

Assays:
Assay type in all cases: cell-based
[1] = system: Aspergillus niger ATCC 6275; assay: MIC values, water-insoluble (covered area of plates, solutions in acetone); conditions: solution in acetone, 100% means no inhibiting action
Excerpt: (§1) [table] The size of the covered areas of the plates is given in %; 100% means no inhibiting action.

[2] = system: Candida albicans ATCC 10231; assay: as above; conditions: solution in acetone, 100% means no inhibiting action
Excerpt: as §1

[3] = system: Escherichia coli ATCC 11229; assay: as above; conditions: solution in acetone, 100% means no inhibiting action
Excerpt: as §1

[4] = system: Staphylococcus aureus ATCC 6538; assay: as above; conditions: solution in acetone, 100% means no inhibiting action
Excerpt: as §1

[5] = system: Candida albicans ATCC 10231; assay: Plate diffusion test (agar diffusion test); conditions: aromatic alcohol 1 part, dimethylformamide 6 parts
Excerpt: (§2) Standard formulation: • aromatic alcohol 1 part • dimethylformamide 6 parts [table] The diameters of the inhibition zones are given in mm.

[6] = system: Escherichia coli ATCC 11229; assay: Plate diffusion test (agar diffusion test); conditions: aromatic alcohol 1 part, dimethylformamide 6 parts
Excerpt: as §2

[7] = system: Pseudomonas aeruginosa ATCC 15442; assay: Plate diffusion test (agar diffusion test); conditions: aromatic alcohol 1 part, dimethylformamide 6 parts
Excerpt: as §2

[8] = system: Staphylococcus aureus ATCC 6538; assay: Plate diffusion test (agar diffusion test); conditions: aromatic alcohol 1 part, dimethylformamide 6 parts
Excerpt: as §2

P. vulgaris = system: P. vulgaris
Excerpt: as §2

How did the “size of the covered areas of the plates, A. niger” value (“size … A. niger” for short) ([1]; concentration 0.25 % by wt.) turn out when CCCCCC(CO)Cc1ccccc1 (centres unmarked) [Alcohol 18] was run?
Its value is 100%.

What about the “size … A. niger” value ([1]; concentration 0.50 % by wt.) of the same molecule?
The value was 40%.

What about the “size … A. niger” value ([1]; concentration 1.00 % by wt.) of the same molecule?
Its value is 0%.

What about the “size of the covered areas of the plates, C. albicans” value (“size … C. albicans” below) ([2]; concentration 0.25 % by wt.) of the same molecule?
The value was 100%.

And the “size … C. albicans” value ([2]; concentration 0.50 % by wt.)?
The value was 80%.

What about the “size … C. albicans” value ([2]; concentration 1.00 % by wt.) of the same molecule?
Its value is 70%.

And the “size of the covered areas of the plates, E. coli” value (from here on “size … E. coli”) ([3]; concentration 0.25 % by wt.)?
The value was 100%.

And the “size … E. coli” value ([3]; concentration 0.50 % by wt.)?
Its value is 100%.

What about the “size … E. coli” value ([3]; concentration 1.00 % by wt.) of the same molecule?
Its value is 100%.

And the “size of the covered areas of the plates, S. aureus” value (shortened to “size … S. aureus”) ([4]; concentration 0.25 % by wt.)?
The value was 100%.

What about the “size … S. aureus” value ([4]; concentration 0.50 % by wt.) of the same molecule?
Its value is 20%.

And the “size … S. aureus” value ([4]; concentration 1.00 % by wt.)?
The value was 0%.

What about the “diameters of the inhibition zones, C. albicans” value [5] of the same molecule?
Its value is 11 mm.

And the “diameters of the inhibition zones, E. coli” value [6]?
Its value is 0 mm.

What about the “diameters of the inhibition zones, P. aeruginosa” value [7] of the same molecule?
The value was 0 mm.

And the “diameters of the inhibition zones, S. aureus” value [8]?
Its value is 11 mm.

And the “diameters of the inhibition zones, P. vulgaris” value (P. vulgaris)?
Its value is 0 mm.
